Assay type in all cases: biochemical
What all share (details): ADP-Glo SIK kinase assay

One assay addresses T1, SIK1 (Homo sapiens, UniProt P57059).
T1 construct: purchased Carna Biosciences 02-131
Description: ADP-Glo kinase assay, SIK1. Summed up:
(§1)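 Enzyme–substrate mix was started with ATP and incubated 120 min at RT. ADP formed was quantified by ADP-Glo: 40 min ATP depletion, then 30 min detection reagent converting ADP to ATP for luciferase luminescence, which rises with kinase activity. Controls: 1% DMSO and 10 μM staurosporine (final).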

Another assay has as its target T2, SIK2 (Homo sapiens, UniProt Q9H0K1).
T2 construct: purchased ThermoFisher Scientific PV4792
In words: ADP-Glo kinase assay, SIK2. Summed up: as §1
On the technique in general: In ADP-Glo the light output rises with the ADP produced.

For another assay, the target named is T3, SIK3 (Homo sapiens, UniProt Q9Y2K2).
T3 construct: purchased SignalChem S12-11G-100
Description: ADP-Glo kinase assay, SIK3. Put shortly: as §1

For 23 molecules, IC50 results are on record in patent US12264156B2, “Compounds and pharmaceutical compositions thereof for the treatment of diseases” (GALAPAGOS NV, priority 2018, dated 2025).

A value given as a limit tells only on which side of the number the result lay.

T2 sequence (Q9H0K1 whole entry): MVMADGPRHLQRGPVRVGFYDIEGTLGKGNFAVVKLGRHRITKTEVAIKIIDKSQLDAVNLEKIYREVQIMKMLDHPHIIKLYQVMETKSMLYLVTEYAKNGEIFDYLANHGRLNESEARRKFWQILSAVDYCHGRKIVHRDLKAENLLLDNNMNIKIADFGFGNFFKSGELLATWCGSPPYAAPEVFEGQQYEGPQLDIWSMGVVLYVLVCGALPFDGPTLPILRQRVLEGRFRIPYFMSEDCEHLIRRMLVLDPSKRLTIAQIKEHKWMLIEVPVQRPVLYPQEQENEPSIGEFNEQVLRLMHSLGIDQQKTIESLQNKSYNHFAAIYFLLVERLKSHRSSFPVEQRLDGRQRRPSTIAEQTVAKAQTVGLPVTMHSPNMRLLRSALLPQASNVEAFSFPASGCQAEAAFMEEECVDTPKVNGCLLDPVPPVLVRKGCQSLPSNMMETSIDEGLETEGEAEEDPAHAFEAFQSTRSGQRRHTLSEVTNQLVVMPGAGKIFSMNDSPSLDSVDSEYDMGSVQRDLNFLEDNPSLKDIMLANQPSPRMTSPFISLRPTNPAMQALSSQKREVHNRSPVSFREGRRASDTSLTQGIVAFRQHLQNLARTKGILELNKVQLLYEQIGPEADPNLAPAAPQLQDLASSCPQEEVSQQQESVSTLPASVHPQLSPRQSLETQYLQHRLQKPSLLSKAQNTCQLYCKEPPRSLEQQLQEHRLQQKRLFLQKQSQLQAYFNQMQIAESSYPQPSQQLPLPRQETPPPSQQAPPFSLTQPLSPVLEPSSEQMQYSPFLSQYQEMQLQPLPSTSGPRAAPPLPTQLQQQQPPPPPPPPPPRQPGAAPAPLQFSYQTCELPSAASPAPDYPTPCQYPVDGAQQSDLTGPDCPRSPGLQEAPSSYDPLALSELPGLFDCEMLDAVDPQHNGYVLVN
T1 sequence (P57059 whole entry): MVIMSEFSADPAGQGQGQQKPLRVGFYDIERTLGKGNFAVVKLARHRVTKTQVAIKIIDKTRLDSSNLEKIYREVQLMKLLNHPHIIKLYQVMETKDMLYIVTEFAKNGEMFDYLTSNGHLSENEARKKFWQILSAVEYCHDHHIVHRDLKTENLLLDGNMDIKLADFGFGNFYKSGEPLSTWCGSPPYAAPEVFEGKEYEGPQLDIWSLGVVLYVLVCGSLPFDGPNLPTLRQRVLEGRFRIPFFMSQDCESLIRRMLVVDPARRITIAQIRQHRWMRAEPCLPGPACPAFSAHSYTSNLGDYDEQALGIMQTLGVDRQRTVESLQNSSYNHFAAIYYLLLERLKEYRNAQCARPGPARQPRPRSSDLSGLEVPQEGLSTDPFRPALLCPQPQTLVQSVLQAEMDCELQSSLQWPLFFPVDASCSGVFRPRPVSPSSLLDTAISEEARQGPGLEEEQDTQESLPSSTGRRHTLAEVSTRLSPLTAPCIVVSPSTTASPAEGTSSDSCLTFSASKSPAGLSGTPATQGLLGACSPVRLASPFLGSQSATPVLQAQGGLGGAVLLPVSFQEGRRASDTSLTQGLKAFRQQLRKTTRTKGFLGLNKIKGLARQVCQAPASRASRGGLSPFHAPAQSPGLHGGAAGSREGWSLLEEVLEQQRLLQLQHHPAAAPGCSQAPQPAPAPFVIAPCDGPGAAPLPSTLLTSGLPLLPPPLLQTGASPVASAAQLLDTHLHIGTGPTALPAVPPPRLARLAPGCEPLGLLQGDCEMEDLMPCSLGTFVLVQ
T3 sequence (Q9Y2K2 whole entry): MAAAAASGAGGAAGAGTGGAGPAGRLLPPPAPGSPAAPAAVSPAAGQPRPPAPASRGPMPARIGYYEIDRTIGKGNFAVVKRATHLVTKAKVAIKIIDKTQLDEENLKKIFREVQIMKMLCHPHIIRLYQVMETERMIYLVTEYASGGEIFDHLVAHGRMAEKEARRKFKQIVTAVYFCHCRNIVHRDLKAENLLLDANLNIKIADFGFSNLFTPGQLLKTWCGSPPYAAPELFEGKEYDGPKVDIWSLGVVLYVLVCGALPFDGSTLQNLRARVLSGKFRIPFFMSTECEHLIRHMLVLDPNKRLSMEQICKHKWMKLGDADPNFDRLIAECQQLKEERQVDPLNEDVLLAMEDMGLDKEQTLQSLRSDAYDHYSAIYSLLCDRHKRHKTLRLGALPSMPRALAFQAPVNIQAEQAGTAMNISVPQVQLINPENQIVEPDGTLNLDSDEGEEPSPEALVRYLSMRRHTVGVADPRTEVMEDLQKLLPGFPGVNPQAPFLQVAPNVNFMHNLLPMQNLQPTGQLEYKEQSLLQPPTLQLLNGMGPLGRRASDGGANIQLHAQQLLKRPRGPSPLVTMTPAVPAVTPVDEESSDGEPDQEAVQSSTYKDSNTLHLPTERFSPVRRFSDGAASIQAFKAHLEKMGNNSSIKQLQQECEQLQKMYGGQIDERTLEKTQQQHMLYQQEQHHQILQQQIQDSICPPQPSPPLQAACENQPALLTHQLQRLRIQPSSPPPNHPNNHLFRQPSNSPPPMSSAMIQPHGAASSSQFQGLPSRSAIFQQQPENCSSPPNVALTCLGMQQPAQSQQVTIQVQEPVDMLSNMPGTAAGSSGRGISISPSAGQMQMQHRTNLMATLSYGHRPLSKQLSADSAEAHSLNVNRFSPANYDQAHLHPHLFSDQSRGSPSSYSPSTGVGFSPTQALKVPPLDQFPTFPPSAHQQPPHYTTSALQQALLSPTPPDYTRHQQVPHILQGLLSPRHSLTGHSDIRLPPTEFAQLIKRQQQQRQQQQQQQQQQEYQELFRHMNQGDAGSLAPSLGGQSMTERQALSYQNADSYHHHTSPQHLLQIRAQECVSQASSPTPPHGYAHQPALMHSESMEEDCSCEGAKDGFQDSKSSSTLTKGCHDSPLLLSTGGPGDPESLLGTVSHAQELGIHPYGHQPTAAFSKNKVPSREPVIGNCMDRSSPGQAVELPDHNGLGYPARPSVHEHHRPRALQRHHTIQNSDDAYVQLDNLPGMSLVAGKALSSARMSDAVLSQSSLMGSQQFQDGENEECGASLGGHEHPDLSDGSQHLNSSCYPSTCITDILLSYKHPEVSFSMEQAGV

In the case of `COc1cc(-c2cnc3cc(OCC4(C)CN(C(=O)OC(C)(C)C)C4)ccn23)cc(OC(F)F)c1C(=O)NC1CC1` [Cpd 188, tert-butyl 3-[[3-[4-(cyclopropylcarbamoyl)-3-(difluoromethoxy)-5-methoxy-phenyl]imidazo[1,2-a]pyridin-7-yl]oxymethyl]-3-methyl-azetidine-1-carboxylate], the IC50 – broadly, the midpoint of a concentration-inhibition curve – on SIK1 lay within 10 to 100 nM; against SIK2, 0.01 to 10 nM; against SIK3 it was 0.01 to 10 nM.

As to `COc1cc(-c2cnc3cc(OCc4ncccn4)ccn23)cc(OC(F)F)c1C(=O)NC1CC1` [compound 94, N-cyclopropyl-2-(difluoromethoxy)-6-methoxy-4-[7-(pyrimidin-2-ylmethoxy)imidazo[1,2-a]pyridin-3-yl]benzamide], the IC50 against SIK1, against SIK2 and against SIK3 was 10 to 100 nM in each case.

Regarding `COC(=O)C1CN(CCOc2ccn3c(-c4cc(OC)c(C(=O)NC5CC5)c(OC(F)F)c4)cnc3c2)C1` [compound 393, methyl 1-[2-[3-[4-(cyclopropylcarbamoyl)-3-(difluoromethoxy)-5-methoxy-phenyl]imidazo[1,2-a]pyridin-7-yl]oxyethyl]azetidine-3-carboxylate], the IC50 was 10 to 100 nM against SIK1, 0.01 to 10 nM on SIK2 and 0.01 to 10 nM on SIK3.

Take `COc1cc(-c2cnc3cc(OCCCN4CCC(N(C)S(C)(=O)=O)CC4)ccn23)cc(OC(F)F)c1C(=O)NC1CC1` [compound 326, N-cyclopropyl-2-(difluoromethoxy)-6-methoxy-4-[7-[3-[4-[methyl(methylsulfonyl)amino]-1-piperidyl]propoxy]imidazo[1,2-a]pyridin-3-yl]benzamide]: the IC50 against SIK1 lay in the range of 10 to 100 nM; against SIK2, 0.01 to 10 nM; against SIK3, 0.01 to 10 nM.

Take `COc1cc(-c2cnc3cc(OCCCN4CCCCC4)ccn23)cc(OC(F)F)c1C(=O)N[C@@H]1CC[C@H]1O` (racemic) [compound 359, 2-(difluoromethoxy)-N-[(1R,2R)-2-hydroxycyclobutyl]-6-methoxy-4-[7-[3-(1-piperidyl)propoxy]imidazo[1,2-a]pyridin-3-yl]benzamide/2-(difluoromethoxy)-N-[(1S,2S)-2-hydroxycyclobutyl]-6-methoxy-4-[7-[3-(1-piperidyl)propoxy]imidazo[1,2-a]pyridin-3-yl]benzamide mixture]: the IC50 at SIK1 fell in the range of 100 to 500 nM; on SIK2 it was 0.01 to 10 nM; on SIK3, 10 to 100 nM.

As to `COc1cc(-c2cnc3cc(OC4CCN(C)C4)ccn23)cc(OC(F)F)c1C(=O)NC1CC1` (stereo not drawn) [compound 15, N-cyclopropyl-2-(difluoromethoxy)-6-methoxy-4-[7-(1-methylpyrrolidin-3-yl)oxyimidazo[1,2-a]pyridin-3-yl]benzamide], the values for the IC50 on SIK1, against SIK2 and against SIK3 were above 500 nM, 10 to 100 nM and 10 to 100 nM, respectively.

Turning to `COc1cc(-c2cnc3cc(OC4CCOCC4)ccn23)cc(OC(F)F)c1C(=O)NC1CC1` [compound 1, N-cyclopropyl-2-(difluoromethoxy)-6-methoxy-4-(7-tetrahydropyran-4-yloxyimidazo[1,2-a]pyridin-3-yl)benzamide], the figures for the concentration for half-maximal inhibition (IC50) against SIK1, against SIK2 and on SIK3 were 100 to 500 nM, 100 to 500 nM and 0.01 to 10 nM, respectively.

Turning to `COc1cc(-c2cnc3cc(OCC(F)(F)CN)ccn23)cc(OC(F)F)c1C(=O)NC1CC1` [compound 364, 4-[7-(3-amino-2,2-difluoro-propoxy)imidazo[1,2-a]pyridin-3-yl]-N-cyclopropyl-2-(difluoromethoxy)-6-methoxy-benzamide], the values for the IC50 on SIK1, on SIK2 and at SIK3 were 10 to 100 nM, 0.01 to 10 nM and 0.01 to 10 nM, respectively.

For `COC(=O)[C@@H]1CN(CCOc2ccn3c(-c4cc(OC)c(C(=O)NC5CC5)c(OC(F)F)c4)cnc3c2)CCO1` [compound 389, methyl (2S)-4-[2-[3-[4-(cyclopropylcarbamoyl)-3-(difluoromethoxy)-5-methoxy-phenyl]imidazo[1,2-a]pyridin-7-yl]oxyethyl]morpholine-2-carboxylate], the IC50 on SIK1 fell in the range of 10 to 100 nM; against SIK2, 0.01 to 10 nM; on SIK3 it was 0.01 to 10 nM.

Take `COc1cc(-c2cnc3cc(OCC4CC(N)C4)ccn23)cc(OC(F)F)c1C(=O)NC1CC1` (stereo not drawn) [compound 108, 4-[7-[(3-aminocyclobutyl)methoxy]imidazo[1,2-a]pyridin-3-yl]-N-cyclopropyl-2-(difluoromethoxy)-6-methoxy-benzamide]: the IC50 at SIK1, at SIK2 and on SIK3 was 0.01 to 10 nM each time.

In the case of `COc1cc(-c2cnc3cc(OC[C@@H]4CCCN(C5COC5)C4)ccn23)cc(OC(F)F)c1C(=O)NC1CC1` [compound 339, N-cyclopropyl-2-(difluoromethoxy)-6-methoxy-4-[7-[[(3R)-1-(oxetan-3-yl)-3-piperidyl]methoxy]imidazo[1,2-a]pyridin-3-yl]benzamide], the IC50 against SIK1 was 10 to 100 nM; against SIK2 it was 0.01 to 10 nM; against SIK3 it was 0.01 to 10 nM.

For the molecule `COc1cc(-c2cnc3cc(OC(C)(C)C#N)ccn23)cc(OC(F)F)c1C(=O)NC1CC1` [Cpd 263, 4-[7-(1-cyano-1-methyl-ethoxy)imidazo[1,2-a]pyridin-3-yl]-N-cyclopropyl-2-(difluoromethoxy)-6-methoxy-benzamide], the concentration for half-maximal inhibition (IC50) against SIK1 is above 500 nM; against SIK2, above 500 nM; against SIK3 it was 10 to 100 nM.

In the case of `COc1cc(-c2cnc3cc(OCC4CCC(=O)N4)ccn23)cc(OC(F)F)c1C(=O)NC1CC1` (stereo not drawn) [compound 99, N-cyclopropyl-2-(difluoromethoxy)-6-methoxy-4-[7-[(5-oxopyrrolidin-2-yl)methoxy]imidazo[1,2-a]pyridin-3-yl]benzamide], the IC50 at SIK1, against SIK2 and against SIK3 was 0.01 to 10 nM each time.

Turning to `COc1cc(-c2cnc3cc(OCC4(N)CCCCC4)ccn23)cc(OC(F)F)c1C(=O)NC1CC1` [compound 169, 4-[7-[(1-aminocyclohexyl)methoxy]imidazo[1,2-a]pyridin-3-yl]-N-cyclopropyl-2-(difluoromethoxy)-6-methoxy-benzamide], the IC50 against SIK1 was 100 to 500 nM; against SIK2, 10 to 100 nM; against SIK3, 0.01 to 10 nM.

Take `COc1cc(-c2cnc3cc(OC4CC(C#N)C4)ccn23)cc(OC(F)F)c1C(=O)NC1CC1` (stereo not drawn) [compound 164, 4-[7-(3-cyanocyclobutoxy)imidazo [1,2-a]pyridin-3-yl]-N-cyclopropyl-2-(difluoromethoxy)-6-methoxy-benzamide]: the IC50 at SIK1 lay within 10 to 100 nM; against SIK2 it was 0.01 to 10 nM; on SIK3, 0.01 to 10 nM.

Regarding `COc1cc(-c2cnc3cc(OCCCN4CCn5cccc5C4)ccn23)cc(OC(F)F)c1C(=O)NC1CC1` [compound 310, N-cyclopropyl-2-(difluoromethoxy)-4-[7-[3-(3,4-dihydro-1H-pyrrolo[1,2-a]pyrazin-2-yl)propoxy]imidazo[1,2-a]pyridin-3-yl]-6-methoxy-benzamide], the values for the IC50 against SIK1, on SIK2 and against SIK3 were 10 to 100 nM, 0.01 to 10 nM and 0.01 to 10 nM, respectively.

Take `COc1cc(-c2cnc3cc(OCC(N)C4CCOCC4)ccn23)cc(OC(F)F)c1C(=O)NC1CC1` (stereo not drawn) [compound 135, 4-[7-(2-amino-2-tetrahydropyran-4-yl-ethoxy)imidazo[1,2-a]pyridin-3-yl]-N-cyclopropyl-2-(difluoromethoxy)-6-methoxy-benzamide]: the IC50 was 10 to 100 nM on SIK1, 0.01 to 10 nM on SIK2 and 0.01 to 10 nM against SIK3.

With `COc1cc(-c2cnc3cc(OCCOCCO)ccn23)cc(OC(F)F)c1C(=O)NC1CC1` [compound 73], the IC50 fell in the range of 10 to 100 nM against SIK1, 0.01 to 10 nM against SIK2 and 0.01 to 10 nM against SIK3.

For the molecule `COc1cc(-c2cnc3cc(OCC(N)C4CC4)ccn23)cc(OC(F)F)c1C(=O)NC1CC1` (stereo not drawn) [compound 137, 4-[7-(2-amino-2-cyclopropyl-ethoxy)imidazo[1,2-a]pyridin-3-yl]-N-cyclopropyl-2-(difluoromethoxy)-6-methoxy-benzamide], the values for the IC50 against SIK1, at SIK2 and against SIK3 were 10 to 100 nM, 0.01 to 10 nM and 0.01 to 10 nM, respectively.

With `COc1cc(-c2cnc3cc(OCC4(C)CNC4)ccn23)cc(OC(F)F)c1C(=O)NC1CC1` [compound 208, N-cyclopropyl-2-(difluoromethoxy)-6-methoxy-4-[7-[(3-methylazetidin-3-yl)methoxy]imidazo[1,2-a]pyridin-3-yl]benzamide], the IC50 against SIK1 lay within 10 to 100 nM; at SIK2, 0.01 to 10 nM; at SIK3, 0.01 to 10 nM.

`COc1cc(-c2cnc3cc(OC4CCCN(C)C4)ccn23)cc(OC(F)F)c1C(=O)NC1CC1` (stereo not drawn) [compound 2, N-cyclopropyl-2-(difluoromethoxy)-6-methoxy-4-[7-[(1-methyl-3-piperidyl)oxy]imidazo [1,2-a]pyridin-3-yl]benzamide]: the half-inhibitory concentration (IC50) against SIK1 is above 500 nM; at SIK2, 10 to 100 nM; at SIK3, 0.01 to 10 nM.

`CCOCCOc1cc(-c2cnc3cc(OCCN(C)C)ccn23)cc(OC)c1C(=O)NC1CC1` [Cpd 56, N-cyclopropyl-4-[7-[2-(dimethylamino)ethoxy]imidazo [1,2-a]pyridin-3-yl]-2-(2-ethoxyethoxy)-6-methoxy-benzamide]: the results for the half-maximal inhibitory concentration (IC50) against SIK1, against SIK2 and against SIK3 were above 500 nM, 100 to 500 nM and 100 to 500 nM, respectively.

For `COc1cc(-c2cnc3cc(OCCCOS(C)(=O)=O)ccn23)cc(OC(F)F)c1C(=O)NC1CC1` [Cpd 333, 3-[3-[4-(cyclopropylcarbamoyl)-3-(difluoromethoxy)-5-methoxy-phenyl]imidazo[1,2-a]pyridin-7-yl]oxypropyl methanesulfonate], the figures for the IC50 against SIK1, against SIK2 and against SIK3 were 10 to 100 nM, 0.01 to 10 nM and 0.01 to 10 nM, respectively.
